In general, IC50 refers to the concentration that inhibits the measured activity by half.

“And” between values parts separate entries of the source, which are not always exact repeats. Identical values can stand only once.

What all share (type): cell-based
In experiment [1] the test system is SARS-CoV-2 Brazil (Gamma: K417T/E484K/N501Y) pseudovirus.
Experiment [2] concerns SARS-CoV-2 USA-WA1/2020 D614G pseudovirus.
Experiment [3] has as its system SARS-CoV-2 mutant (D614G) and variants of concern (VOC) pseudoviruses. The conditions noted are these: read-out: IC50, range over all variant pseudoviruses.

In the case of `Cc1ccc2nc3s/c(=C/c4coc(-c5ccc(Cl)c(C(=O)O)c5)c4)c(=O)n3c2c1` [NBCoV35], the IC50 is 292 nM and 506 nM in experiment [1]; 266 nM and 195 nM in experiment [2].

For the compound `O=C(O)c1cc(-c2ccc(/C=c3\sc4nc(=O)c5c6c(sc5n4c3=O)CCCC6)o2)ccc1Cl` [NBCoV36], the IC50 in experiment [3] was 181 to 1180 nM and 129 to 332 nM.

Take `Cc1cc(C)c2nc3s/c(=C\c4ccc(-c5ccc(Cl)c(C(=O)O)c5)o4)c(=O)n3c2c1` [NBCoV37]: the IC50 was 82 to 267 nM and 42.5 to 311 nM in experiment [3]; 311 nM and 157 nM in experiment [2].

On to `Cc1cc2nc3s/c(=C/c4ccc(-c5cccc(C(=O)O)c5)o4)c(=O)n3c2cc1C` [NBCoV63], for which the half-inhibitory concentration (IC50) in experiment [3] is 34 to 96 nM and 26 to 105 nM; in experiment [1], 45.5 nM and 77.5 nM; in experiment [2], 42.5 nM and 40.8 nM.
